Laboratory results from PubChem BioAssay AID330 (DTP/NCI, 2004).
“And” between values parts separate entries of the source, which are not always exact repeats. Identical values can stand only once. Toxic doses and inconclusive results are not listed. How the source made its calls: active means survival T/C of 150% or more; inactive means T/C below 125% in these data.

Test system: P388 leukemia ip, CD2F1 mice, survival T/C
Experiment: NCI In Vivo Anticancer Drug Screen. Data for tumor model P388 Leukemia (intraperitoneal) in CD2F1 (CDF1) mice
Conditions: endpoint: median survival time, higher = longer survival
Summary of the method: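 Mice carrying the transplanted tumor received test compound or vehicle. Survival was recorded in each group, and the value is the treated-group measurement divided by that of the vehicle-treated control group.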

[1] = dose: 50.0 mg/kg/injection, schedule: Q01DX005 (ip), vehicle: saline with Tween-80
[2] = dose: 100.0 mg/kg/injection, schedule: Q01DX005 (ip), vehicle: saline with Tween-80
[3] = dose: 200.0 mg/kg/injection, schedule: Q01DX005 (ip), vehicle: saline with Tween-80
[4] = dose: 12.5 mg/kg/injection, schedule: Q01DX009 (ip), vehicle: Klucel (hydroxypropylcellulose) (HPC)
[5] = dose: 25.0 mg/kg/injection, schedule: Q01DX009 (ip), vehicle: Klucel (hydroxypropylcellulose) (HPC)
[6] = dose: 50.0 mg/kg/injection, schedule: Q01DX009 (ip), vehicle: Klucel (hydroxypropylcellulose) (HPC)
[7] = dose: 50.0 mg/kg/injection, schedule: Q01DX005 (ip), vehicle: Klucel (hydroxypropylcellulose) (HPC)
[8] = dose: 100.0 mg/kg/injection, schedule: Q01DX005 (ip), vehicle: Klucel (hydroxypropylcellulose) (HPC)

Measured: T/C

NC(N)=N/N=C/c1ccc(-c2ccccc2)cc1
inactive: dose: 6.25 mg/kg/injection, schedule: Q01DX009 (ip), vehicle: saline with Tween-80 104 % of control | dose: 6.25 mg/kg/injection, schedule: Q04DX003 (ip), vehicle: saline with Tween-80 100 % of control | dose: 12.5 mg/kg/injection, schedule: Q01DX009 (ip), vehicle: saline with Tween-80 104 % of control | dose: 12.5 mg/kg/injection, schedule: Q04DX003 (ip), vehicle: saline with Tween-80 100 % of control | dose: 25.0 mg/kg/injection, schedule: Q04DX003 (ip), vehicle: saline with Tween-80 100 % of control

CSc1nc(C)cc(N)n1
inactive: dose: 12.5 mg/kg/injection, schedule: Q04DX003 (ip), vehicle: Klucel (hydroxypropylcellulose) (HPC) 115 % of control | dose: 25.0 mg/kg/injection, schedule: Q04DX003 (ip), vehicle: Klucel (hydroxypropylcellulose) (HPC) 99 % of control | dose: 50.0 mg/kg/injection, schedule: Q04DX003 (ip), vehicle: Klucel (hydroxypropylcellulose) (HPC) 99 % of control | dose: 100.0 mg/kg/injection, schedule: Q04DX003 (ip), vehicle: Klucel (hydroxypropylcellulose) (HPC) 103 % of control

O=C(N/C(=C\c1ccccc1)C(=O)N1CCNCC1)c1ccccc1
inactive: [1] 93 % of control | [2] 89 % of control | [3] 87 % of control

COc1c2c(c(N3CCCC3)c3c1C(=O)c1ccccc1C3=O)C(=O)CCC2
inactive: dose: 100.0 mg/kg/injection, schedule: Q01DX001 (ip), vehicle: saline with Tween-80 100 % of control | dose: 200.0 mg/kg/injection, schedule: Q01DX001 (ip), vehicle: saline with Tween-80 105 % of control | dose: 400.0 mg/kg/injection, schedule: Q01DX001 (ip), vehicle: saline with Tween-80 94 % of control

CC(C)NC(=O)OCc1c(COC(=O)NC(C)C)c(-c2ccc(Cl)c(Cl)c2)n2c1C[C@@H](OC(=O)CCC(=O)O)C2 (tested in a mixture with another compound)
inactive: dose: 12.5 mg/kg/injection, schedule: Q01DX005 (ip), vehicle: water 106 % of control and 107 % of control | dose: 25.0 mg/kg/injection, schedule: Q01DX005 (ip), vehicle: water 107 % of control and 108 % of control | dose: 50.0 mg/kg/injection, schedule: Q01DX005 (ip), vehicle: water 111 % of control and 123 % of control | dose: 50.0 mg/kg/injection, schedule: Q04DX002 (ip), vehicle: water 103 % of control | dose: 100.0 mg/kg/injection, schedule: Q04DX002 (ip), vehicle: water 111 % of control | dose: 200.0 mg/kg/injection, schedule: Q04DX002 (ip), vehicle: water 107 % of control

Cc1ccc(C2(C)OC(CCl)CS2)c(C)c1 (stereo not drawn)
inactive: dose: 25.0 mg/kg/injection, schedule: Q01DX009 (ip), vehicle: saline with Tween-80 101 % of control and 98 % of control | dose: 50.0 mg/kg/injection, schedule: Q01DX009 (ip), vehicle: saline with Tween-80 104 % of control and 98 % of control | dose: 100.0 mg/kg/injection, schedule: Q01DX009 (ip), vehicle: saline with Tween-80 105 % of control | dose: 200.0 mg/kg/injection, schedule: Q01DX009 (ip), vehicle: saline with Tween-80 107 % of control and 119 % of control

c1cc(-c2ncc3ccncc3n2)ccn1
inactive: dose: 60.0 mg/kg/injection, schedule: Q01DX005 (ip), vehicle: Klucel (hydroxypropylcellulose) (HPC) 109 % of control | dose: 120.0 mg/kg/injection, schedule: Q01DX005 (ip), vehicle: Klucel (hydroxypropylcellulose) (HPC) 100 % of control | dose: 240.0 mg/kg/injection, schedule: Q01DX005 (ip), vehicle: Klucel (hydroxypropylcellulose) (HPC) 98 % of control

CCOP(=Nc1cc(C)ccc1C)(OCC)OCC
inactive: [4] 100 % of control | [5] 94 % of control | dose: 50.0 mg/kg/injection, schedule: Q01DX001 (ip), vehicle: Klucel (hydroxypropylcellulose) (HPC) 103 % of control | [6] 103 % of control and 93 % of control | dose: 100.0 mg/kg/injection, schedule: Q01DX001 (ip), vehicle: Klucel (hydroxypropylcellulose) (HPC) 100 % of control | dose: 200.0 mg/kg/injection, schedule: Q01DX001 (ip), vehicle: Klucel (hydroxypropylcellulose) (HPC) 96 % of control

CC(/C=N\N=C(N)N)=N/NC(N)=O
inactive: dose: 50.0 mg/kg/injection, schedule: Q01DX009 (ip), vehicle: saline 92 % of control | dose: 100.0 mg/kg/injection, schedule: Q01DX009 (ip), vehicle: saline 108 % of control | dose: 200.0 mg/kg/injection, schedule: Q01DX009 (ip), vehicle: saline 115 % of control

Cn1nc(C(N)=O)c2c(N)ncnc21
inactive: dose: 0.94 mg/kg/injection, schedule: Q01DX005 (ip), vehicle: saline with Tween-80 105 % of control | dose: 1.88 mg/kg/injection, schedule: Q01DX005 (ip), vehicle: saline with Tween-80 92 % of control | dose: 3.75 mg/kg/injection, schedule: Q01DX005 (ip), vehicle: saline with Tween-80 104 % of control | dose: 7.5 mg/kg/injection, schedule: Q01DX005 (ip), vehicle: saline with Tween-80 91 % of control

CN(C)CCOC(c1ccccc1)c1ccccc1
inactive: dose: 25.0 mg/kg/injection, schedule: Q04DX003 (ip), vehicle: saline 100 % of control | dose: 50.0 mg/kg/injection, schedule: Q04DX003 (ip), vehicle: saline 100 % of control | dose: 100.0 mg/kg/injection, schedule: Q04DX003 (ip), vehicle: saline 108 % of control

O=NCC(=O)OCc1ccccc1
inactive: dose: 12.5 mg/kg/injection, schedule: Q01DX009 (ip), vehicle: water 95 % of control | dose: 25.0 mg/kg/injection, schedule: Q01DX009 (ip), vehicle: water 87 % of control | dose: 50.0 mg/kg/injection, schedule: Q01DX009 (ip), vehicle: water 95 % of control | dose: 100.0 mg/kg/injection, schedule: Q01DX009 (ip), vehicle: water 99 % of control | dose: 200.0 mg/kg/injection, schedule: Q01DX009 (ip), vehicle: water 99 % of control

CC(C)CNc1ncnc2n[nH]nc12
inactive: [1] 100 % of control | [2] 103 % of control | [3] 100 % of control

CC1(C)NC(=O)N2CCCC(=O)CC21 (stereo not drawn)
inactive: dose: 100.0 mg/kg/injection, schedule: Q01DX001 (ip), vehicle: saline 96 % of control | dose: 200.0 mg/kg/injection, schedule: Q01DX001 (ip), vehicle: saline 95 % of control | dose: 400.0 mg/kg/injection, schedule: Q01DX001 (ip), vehicle: saline 96 % of control

O=c1c2ccccc2[nH]c2c1[nH]c1ccccc12
inactive: [7] 89 % of control | [8] 90 % of control

COc1ccc(Cc2n[nH]c(=S)n2-c2cc(C)ccc2C)cc1OC
inactive: dose: 60.0 mg/kg/injection, schedule: Q01DX005 (ip), vehicle: saline with Tween-80 102 % of control | dose: 120.0 mg/kg/injection, schedule: Q01DX005 (ip), vehicle: saline with Tween-80 91 % of control | dose: 240.0 mg/kg/injection, schedule: Q01DX005 (ip), vehicle: saline with Tween-80 93 % of control

Cc1nn(C(=S)S)c(C)c1N=Nc1ccccc1Cl
inactive: [1] 111 % of control | [2] 117 % of control | [3] 108 % of control

COC(=O)/C(=N\NS(=O)(=O)c1ccc(C)cc1)c1ccccc1
inactive: [4] 99 % of control | [5] 105 % of control | [6] 99 % of control | dose: 100.0 mg/kg/injection, schedule: Q01DX009 (ip), vehicle: Klucel (hydroxypropylcellulose) (HPC) 98 % of control | dose: 200.0 mg/kg/injection, schedule: Q01DX009 (ip), vehicle: Klucel (hydroxypropylcellulose) (HPC) 90 % of control

NC(=O)[C@@H]1CC2CCC1C2 (stereo partly drawn)
inactive: [7] 88 % of control | [8] 93 % of control | dose: 200.0 mg/kg/injection, schedule: Q01DX005 (ip), vehicle: Klucel (hydroxypropylcellulose) (HPC) 87 % of control

CCCn1c2nc(=O)[nH]c(=O)c-2[n+]([O-])c2ccccc21
inactive: dose: 6.25 mg/kg/injection, schedule: Q01DX001 (ip), vehicle: saline with Tween-80 97 % of control | dose: 12.5 mg/kg/injection, schedule: Q01DX001 (ip), vehicle: saline with Tween-80 98 % of control
